Drawing on patent US20070032469A1, “Tricyclic benzimidazoles and their use as metabotropic glutamate receptor modulators” (AstraZeneca AB, priority 2005, published 2007), this text covers EC50 for 5 compounds.

In this test the target is T1, human mGluR2 (Homo sapiens, UniProt Q14416).
T1 construct: fused on or other part: If FLIPR: the intracellular domain of the human calcium receptor (CASR, P41180) in place of mGluR2's own, and the promiscuous chimeric G protein Gaqi5 fused on; If GTPgammaS: nothing
T1 sequence (Q14416 19-819 limits assumed): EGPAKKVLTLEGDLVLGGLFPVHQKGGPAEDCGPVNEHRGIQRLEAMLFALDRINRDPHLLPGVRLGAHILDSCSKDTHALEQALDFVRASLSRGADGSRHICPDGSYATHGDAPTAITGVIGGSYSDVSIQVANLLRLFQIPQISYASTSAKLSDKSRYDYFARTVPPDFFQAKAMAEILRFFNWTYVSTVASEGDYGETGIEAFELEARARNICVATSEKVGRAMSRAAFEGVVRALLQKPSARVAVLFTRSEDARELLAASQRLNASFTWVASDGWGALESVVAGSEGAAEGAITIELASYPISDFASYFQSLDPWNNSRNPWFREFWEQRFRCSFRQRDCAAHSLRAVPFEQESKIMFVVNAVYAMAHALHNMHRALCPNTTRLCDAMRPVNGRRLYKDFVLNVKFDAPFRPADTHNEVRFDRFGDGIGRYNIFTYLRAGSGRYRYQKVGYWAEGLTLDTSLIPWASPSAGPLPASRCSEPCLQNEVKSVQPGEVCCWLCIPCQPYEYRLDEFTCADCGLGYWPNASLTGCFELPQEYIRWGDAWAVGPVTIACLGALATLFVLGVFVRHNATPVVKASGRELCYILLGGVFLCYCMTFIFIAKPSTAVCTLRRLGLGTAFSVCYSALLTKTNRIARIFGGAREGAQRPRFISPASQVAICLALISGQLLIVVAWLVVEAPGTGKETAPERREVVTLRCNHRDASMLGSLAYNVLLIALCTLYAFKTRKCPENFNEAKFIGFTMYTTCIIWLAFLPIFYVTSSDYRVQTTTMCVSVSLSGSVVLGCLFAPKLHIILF
Put plainly: mGluR2 potentiator assays described herein (FLIPR calcium mobilization in HEK 293 cells expressing chimeric mGluR2/CaR, or [35S]-GTPγS binding with CHO membranes). The class given is cell-based. To be noted: active in the assays described herein; which assay (FLIPR or GTPγS) is not stated. The source says:
The pharmacological properties of the compounds of the invention can be analyzed using standard assays for functional activity. Examples of glutamate receptor assays are well known in the art as described in, for example, Aramori et al., 1992, Neuron, 8:757; Tanabe et al., 1992, Neuron, 8:169; Miller et al., 1995, J. Neuroscience, 15:6103; Balazs, et al., 1997, J. Neurochemistry, 1997,69:151. The methodology described in these publications is incorporated herein by reference. Conveniently, the compounds of the invention can be studied by means of an assay that measures the mobilization of intracellular calcium, [Ca^2+]i in cells expressing mGluR2.
Fluorometric Imaging Plate Reader (FLIPR) analysis was used to detect allosteric activators of mGluR2 via calcium mobilization. A clonal HEK 293 cell line expressing a chimeric mGluR2/CaR construct comprising the extracellular and transmembrane domains of human mGluR2 and the intracellular domain of the human calcium receptor, fused to the promiscuous chimeric protein Gaqi5 was used. […] At 24-hours prior to analysis, the cells were trypsinized and plated in DMEM at 100,000 cells/well in black sided, clear-bottom, collagen I coated, 96-well plates. The plates were incubated under 5% CO2 at 37° C. overnight. Cells were loaded with 6 μM fluo-3 acetoxymethylester (Molecular Probes, Eugene Oreg.) for 60 min. at room temperature. All assays were performed in a buffer containing 126 mM NaCl, 5 mM KCl, 1 mM MgCl2, 1 mM CaCl2, 20 mM Hepes, 0.06 μM DCG-IV (a Group II mGluR selective agonist), supplemented with 1.0 mg/ml D-glucose and 1.0 mg/ml BSA fraction IV (pH 7.4).
FLIPR experiments were done using a laser setting of 0.8 W and a 0.4 second CCD camera shutter speed. Extracellular fluo-3 was washed off and cells were maintained in 160 μL of buffer and placed in the FLIPR. An addition of test compound (0.01 μM to 30 μM in duplicate) was made after 10 seconds of baseline fluorescent readings were recorded on FLIPR. Fluorescent signals were then recorded for an additional 75 seconds at which point a second addition of DCG-IV (0.2 μM) was made and fluorescent signals were recorded for an additional 65 seconds. Fluorescent signals were measured as the peak height of the response within the sample period. Data was analyzed using Assay Explorer, and EC50 and Emax values (relative to maximum DCG-IV effect) were calculated using a four parameter logistic equation.
A [^35S]-GTPγS binding assay was used to functionally assay mGluR2 receptor activation. The allosteric activator activity of compounds at the human mGluR2 receptor was measured using a [^35S]-GTPγS binding assay with membranes prepared from CHO cells which stably express the human mGluR2. The assay is based upon the principle that agonists bind to G-protein coupled receptors to stimulate GDP-GTP exchange at the G-protein. Since [^35S]-GTPγS is a non-hydrolyzable GTP analog, it can be used to provide an index of GDP-GTP exchange and, thus, receptor activation. The GTPγS binding assay therefore provides a quantitative measure of receptor activation.
Membranes were prepared from CHO cells stably transfected with human mGluR2. […] The amount of radioactivity bound was determined by counting plates on the Packard TopCount. […]
In general terms: Calcium assays in cells follow changes in intracellular calcium, usually with a dye or a luminescent sensor.
As for `CC1CCc2cc(F)cc3nc(CN4CCC(Oc5ccccc5Cl)CC4)n1c23` (centres unmarked) [Example 26.55, 8-fluoro-4-methyl-2-[4-(2-chlorophenoxy)-piperidin-1-ylmethyl]-5,6-dihydro-4H-imidazo[4,5,1-ij]quinoline], the half-maximal effective concentration (EC50) (as a rule, the concentration at which the effect is half-maximal) came out at 370 nM. For `CC1CCc2cc(F)cc3nc(CN4CCN(c5ccc(F)cc5)CC4)n1c23` (centres unmarked) [Example 26.56, 8-fluoro-4-methyl-2-{[4(4-fluorophenyl)piperizin-1-yl]methyl}-5,6-dihydro-4H-imidazo[4,5,1-ij]quinoline], the concentration for a half-maximal effect (EC50) came to 1580 nM. For `CC1CCc2cc(F)cc3nc(CN4CC=C(c5ccc(OC(F)(F)F)cc5)CC4)n1c23` (centres unmarked) [Example 26.65, 8-fluoro-4-methyl-2-{[4-(4-trifluoromethoxyphenyl)-3,6-dihydropyridin-1(2H)-yl]methyl}-5,6-dihydro-4H-imidazo[4,5,1-ij]quinoline] the value was 80 nM; for `Fc1ccc(C2CCN(Cc3nc4cccc5c4n3CCO5)CC2)cc1` [Example 26.69], 230 nM.

Turning to `O=C1CCN2C(CN3CCC(c4ccc(F)cc4)CC3)=NC3C=C(F)C=C1C32` (centres unmarked) [Example 28.1, 8-Fluoro-2-[4-(4-fluoro-phenyl)-piperidin-1-ylmethyl]-4,5,9a,9b-tetrahydroimidazo[4,5,1-ij]quinolin-6-one], the EC50 worked out at 1110 nM.
